From US10117899B2, “Delivery methods and compositions for nuclease-mediated genome engineering in hematopoietic stem cells” (Sangamo BioSciences, Inc., priority 2013, dated 2018)

Assays:
NSG mice = assay: Transplantation of gene targeted CD34+ cells in NSG mice, engraftment of human CD45+ and GFP+ cells; format: in vivo; conditions: for effect on in vivo differentiation of treated cells: addition to the in vitro culture, PB 14 weeks post-transplant; for fraction of mice successfully engrafted with GFP+ cells: delayed treatment and addition of SR1 and dmPGE2 used in combination
Excerpt: For the in vivo studies, 8- to 11-week-old NOD-SCID-IL2Rg^−/− (NSG) mice were purchased from the Jackson laboratory. The experimental protocol was approved by the Institutional Animal Care and Use Committee of the San Raffaele Scientific Institute. At day 4 of culture, 3×10^5 gene targeted CD34+ cells (or 7.5×10^5 BM derived cells) were infused intravenously into the mice after sub-lethal irradiation (200 cGy).MDA3 human mammary carcinoma cell line was obtained by stable transduction of MDA-MB 231 cells with lentiviral vectors expressing the human cytokines GMCSF, IL-7 and IL-15 from the PGK promoter. 4×10^6MDA3 cells were implanted orthotopically in the mammary fat pad of NSG mice 14 weeks after CD34+ cells transplantation or in age-matched untransplanted NSG mice. Human CD45+ engraftment was followed by serial collections of blood from the mouse tail and, at the end of the experiment (12-23 weeks after transplantation), BM, spleen and thymus cells were harvested and analyzed. HumanT lymphocytes were enriched from mouse splenocytes using magnetic beads conjugated to anti human CD3 and CD28 antibodies (Dynabeads human T-activator CD3/CD28; Invitrogen), following the manufacturer instructions, and grown in Iscove's Modified Dulbecco's Media (IMDM) (GIBCO-BRL) supplemented with penicillin, streptomycin, 10% FBS and 5 ng/ml each of IL-7 and IL-15 (PeproTech).

CD34+ cells = assay: Gene targeting of CD34+ cell subpopulations in culture supplemented with SR1 and/or dmPGE2; format: cell-based, human
Method: CD34+ cells were either freshly purified from human cord blood after obtaining informed consent and upon approval by the San Raffaele Hospital Bioethical Committee, or purchased frozen from Lonza. 10^6 CD34+ cells/ml were stimulated in serum-free StemSpan medium (StemCell Technologies) supplemented with penicillin, streptomycin and human early-acting cytokines (stem cell factor (SCF) 100 ng/ml, Flt3 ligand (Flt3-L) 100 ng/ml, thrombopoietin (TPO) 20 ng/ml, and interleukin 6 (IL-6) 20 ng/ml; all purchased from Peprotech) for 24 or 48 hr and then infected with IDLVs at multiplicity of infection (MOI) 100-500. The following day the cells were electroporated with 175 μg/ml ZFNs encoding mRNAs (P3 Primary Cell 4D-Nucleofector X Kit, program EO 100; Lonza). For some experiments, the following drugs were supplemented to the culture media: 1 μM SR1 (Novartis) added at every medium change, and 10 μM PGE2 (Cayman) added at the beginning of the culture, 1 hour before and just after electroporation. For CFC assays, 800 cells were plated one day after electroporation in methylcellulose-based medium (MethoCult H4434, StemCell Technologies). Two weeks after plating, colonies were counted and identified according to morphological criteria.
Because cell cycle progression is a major requirement of HDR, and activation of the more primitive progenitors may require longer stimulation, we postponed the gene targeting procedure to the third day of culture (FIG. 3C). At this time, the cells are also likely to become more permissive to LV transduction. However, since increasing times of culture lead to increased differentiation, we also tested addition of the Aryl Hydrocarbon Receptor Antagonist (StemRegenin 1, SR1) and/or 16.16 dimethyl-prostaglandin E2 (dmPGE2) to the culture medium to promote progenitor expansion in conditions that have been reported to preserve the stemness of these cells (FIG. 3D).

[1] = 1 μM SR1 added to culture medium

SMILES | effect on in vivo differentiation of treated cells (NSG mice) | total human cell engraftment in the mice (NSG mice; after SR1 addition to the culture) | fraction of mice successfully engrafted with GFP+ cells (NSG mice) [%] | effect on overall yield of GFP+ CFC and early (CD133+) progenitors (CD34+ cells; [1]) | effect on percentage of GFP+ cells within each subpopulation (CD34+ cells; [1]) | effect on targeting efficiency (CD34+ cells; SR1 treatment) | effect on the more primitive fractions in culture (CD34+ cells; SR1 treatment) | apoptotic rate of cells treated with or without dmPGE2 (CD34+ cells) | effect on percentage of GFP+ cells in all subpopulations (CD34+ cells; dmPGE2 added to culture, additive effects with SR1)
CC(C)n1cnc2c(NCCc3ccc(O)cc3)nc(-c3csc4ccccc34)nc21 [SR1, StemRegenin 1] | did not significantly affect | significantly increased | 100 | increased | slightly reduced | did not significantly influence | helped maintain the more primitive fractions in culture |  | 
CCCCC(C)(C)[C@H](O)/C=C/[C@H]1[C@H](O)CC(=O)[C@@H]1C/C=C\CCCC(=O)O [dmPGE2, 16.16 dimethyl-prostaglandin E2] | did not significantly affect |  | 100 |  |  |  |  | did not observe significant differences | further increased
